Earlier results, collected in patent USRE38386E1, “Retardation of metalloproteinase incidental to HIV and/or AIDS” (priority 1997, dated 2004).

Columns and labels:
[1] = tested on: endothelial cell monolayers; details: incubation of HIV-infected monocytes with the proteinase inhibitor
HIV-infected monocytes = details: interferon-gamma at 50 U/ml
[2] = tested on: 92-kd metalloproteinase (MMP-9)
HIV = details: added to monocytes on day 10 after infection

| Substance | increased permeability of endothelial cell monolayers to 125I albumin [1] | ability of infected monocytes to form an invasive network on matrigel and their invasion through the matrigel matrix (HIV-infected monocytes) | inhibition of MMP-9 production ([2]; added to monocytes on day 10 after infection) | levels of MMP-9 ([2]; treated 1 day after HIV infection, vs monocytes inoculated with live HIV, heat-inactivated HIV or uninfected control) | levels of MMP-9 produced by HIV-infected monocytes ([2]; treated 1 day prior to infection with HIV, vs untreated HIV-infected monocytes) | reduction of virus replication (HIV) |
| --- | --- | --- | --- | --- | --- | --- |
| TIMP-1: proteinase inhibitor, tissue inhibitor of metalloproteinase | inhibited | – | – | – | – | – |
| interferon-gamma: interferon-gamma, used to treat HIV-infected monocytes | – | inhibited | more than threefold | substantially lower | significant reduction | no significant reduction |
